{"source": "ChEMBL document CHEMBL1201862", "about": "“PubChem BioAssay data set” (2004)", "key": {"[1]": {"experiment": "NIH-3T3 fibroblast cytotoxicity, dose response, cytotoxicity control, cell-based, fluorescence, Alamar Blue, secondary assay (AID 2327);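 also: NIH-3T3 mouse fibroblasts cultured with fluconazole at 8 µg/mL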", "assay_type": "functional"}, "[2]": {"test_system": "BJ", "experiment": "cytotoxicity toward BJ-TERT fibroblasts, dose response, cell-based, RAS-independent, luminescence (AID 1933)", "assay_type": "functional", "conditions": "Homo sapiens"}, "[3]": {"test_system": "BJ", "experiment": "cells", "assay_type": "functional, cell-based", "conditions": "Homo sapiens"}, "[4]": {"experiment": "C. albicans growth with fluconazole, confirmation, fluorescence, retest (AID 2467)", "assay_type": "functional, cell-based"}, "[5]": {"test_system": "BJ", "experiment": "cytotoxicity toward BJ-TERT-LT-ST fibroblasts, dose response, cell-based, RAS-independent, luminescence (AID 1935);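 also: BJ fibroblasts immortalized with TERT plus LT and ST oncogenes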", "assay_type": "functional", "conditions": "Homo sapiens"}, "[6]": {"experiment": "cytotoxicity toward DRD oncogenic fibroblasts, dose response, cell-based, non-viral oncogenic, luminescence (AID 1934)", "assay_type": "functional", "conditions": "Homo sapiens"}, "[7]": {"target": "T1, G-protein coupled receptor 55 (Homo sapiens, UniProt Q9Y2T6)", "T1 sequence (Q9Y2T6 whole entry)": "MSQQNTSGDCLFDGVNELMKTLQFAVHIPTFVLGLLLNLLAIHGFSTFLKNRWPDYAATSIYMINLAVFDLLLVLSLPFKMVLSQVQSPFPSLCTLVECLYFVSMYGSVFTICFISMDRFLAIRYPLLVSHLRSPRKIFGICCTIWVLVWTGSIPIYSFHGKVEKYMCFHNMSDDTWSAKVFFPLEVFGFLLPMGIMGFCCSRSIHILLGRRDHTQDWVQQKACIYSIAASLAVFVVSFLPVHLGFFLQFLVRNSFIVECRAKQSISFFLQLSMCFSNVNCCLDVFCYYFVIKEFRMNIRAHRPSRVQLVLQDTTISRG", "experiment": "GPR55 antagonists, SAR follow-up, counter-screen for GPR35 antagonist project, imaging, image-based (AID 2397)", "assay_type": "functional"}, "[8]": {"test_system": "INS1", "experiment": "beta cell apoptosis inhibitors, cytokine rescue, dose response, luminescence, retest (AID 449756);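 also: cell death triggered by IL-1 beta plus TNF-alpha plus IFN-gamma mixture; protective hits raise ATP signal compared with cytokine alone wells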", "assay_type": "functional, cell-based", "conditions": "Rattus norvegicus"}, "[9]": {"target": "T2, Tyrosine-protein phosphatase non-receptor type 7 (Homo sapiens, UniProt P35236)", "T2 sequence (P35236 whole entry)": "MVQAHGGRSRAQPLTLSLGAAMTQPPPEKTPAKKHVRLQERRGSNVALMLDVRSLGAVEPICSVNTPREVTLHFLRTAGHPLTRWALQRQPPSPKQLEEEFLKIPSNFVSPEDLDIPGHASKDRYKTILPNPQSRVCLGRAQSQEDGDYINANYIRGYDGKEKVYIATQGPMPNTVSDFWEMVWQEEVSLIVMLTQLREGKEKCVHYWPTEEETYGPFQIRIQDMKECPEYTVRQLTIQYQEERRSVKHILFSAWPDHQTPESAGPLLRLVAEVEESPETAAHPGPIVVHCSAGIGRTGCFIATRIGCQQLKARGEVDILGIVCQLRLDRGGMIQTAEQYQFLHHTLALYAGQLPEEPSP", "assay_type": "functional"}, "[10]": {"target": "T3, Tyrosine-protein phosphatase non-receptor type 22 (Homo sapiens, UniProt Q9Y2R2)", "T3 sequence (Q9Y2R2 whole entry)": "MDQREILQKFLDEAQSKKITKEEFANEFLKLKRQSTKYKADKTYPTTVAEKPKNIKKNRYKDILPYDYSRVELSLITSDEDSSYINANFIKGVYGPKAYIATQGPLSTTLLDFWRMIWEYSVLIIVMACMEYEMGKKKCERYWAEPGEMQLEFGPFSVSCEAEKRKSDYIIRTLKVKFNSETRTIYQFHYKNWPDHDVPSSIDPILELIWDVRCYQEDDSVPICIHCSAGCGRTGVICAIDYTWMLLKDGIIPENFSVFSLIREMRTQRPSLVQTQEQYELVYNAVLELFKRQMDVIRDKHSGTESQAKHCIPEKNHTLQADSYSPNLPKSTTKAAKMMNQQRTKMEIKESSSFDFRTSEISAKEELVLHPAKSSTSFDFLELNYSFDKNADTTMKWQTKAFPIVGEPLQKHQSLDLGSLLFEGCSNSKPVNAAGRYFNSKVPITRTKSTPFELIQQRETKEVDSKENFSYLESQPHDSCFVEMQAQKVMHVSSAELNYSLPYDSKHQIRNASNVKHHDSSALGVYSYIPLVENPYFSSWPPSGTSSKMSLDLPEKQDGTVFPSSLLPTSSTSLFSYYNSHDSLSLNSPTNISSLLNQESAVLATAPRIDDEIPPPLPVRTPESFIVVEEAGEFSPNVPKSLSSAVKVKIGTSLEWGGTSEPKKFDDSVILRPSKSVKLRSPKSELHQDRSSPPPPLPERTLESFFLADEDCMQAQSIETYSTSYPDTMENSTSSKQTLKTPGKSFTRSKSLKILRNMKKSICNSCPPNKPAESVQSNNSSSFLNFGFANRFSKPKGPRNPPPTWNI", "assay_type": "functional"}, "[11]": {"target": "T3, Tyrosine-protein phosphatase non-receptor type 22", "assay_type": "functional", "remark": "listed apart in the source"}, "[12]": {"target": "Cytochrome P450 2D6 (Homo sapiens, UniProt P10635)", "sequence (P10635 whole entry)": "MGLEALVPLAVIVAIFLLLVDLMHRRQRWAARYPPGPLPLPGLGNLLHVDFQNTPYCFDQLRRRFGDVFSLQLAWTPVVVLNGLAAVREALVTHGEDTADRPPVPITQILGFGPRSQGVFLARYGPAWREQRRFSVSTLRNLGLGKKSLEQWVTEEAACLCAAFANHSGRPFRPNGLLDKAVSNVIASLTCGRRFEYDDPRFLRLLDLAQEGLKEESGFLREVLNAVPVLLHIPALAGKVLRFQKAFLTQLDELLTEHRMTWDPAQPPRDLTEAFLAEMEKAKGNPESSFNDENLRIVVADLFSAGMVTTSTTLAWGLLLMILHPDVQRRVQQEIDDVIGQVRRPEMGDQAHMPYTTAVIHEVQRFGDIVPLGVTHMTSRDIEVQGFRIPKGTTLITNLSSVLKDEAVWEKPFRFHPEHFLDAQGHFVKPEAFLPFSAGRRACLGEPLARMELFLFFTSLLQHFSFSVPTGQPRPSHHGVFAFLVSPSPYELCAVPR"}, "[13]": {"target": "T4, Cytochrome P450 1A2 (Homo sapiens, UniProt P05177)", "T4 sequence (P05177 whole entry)": "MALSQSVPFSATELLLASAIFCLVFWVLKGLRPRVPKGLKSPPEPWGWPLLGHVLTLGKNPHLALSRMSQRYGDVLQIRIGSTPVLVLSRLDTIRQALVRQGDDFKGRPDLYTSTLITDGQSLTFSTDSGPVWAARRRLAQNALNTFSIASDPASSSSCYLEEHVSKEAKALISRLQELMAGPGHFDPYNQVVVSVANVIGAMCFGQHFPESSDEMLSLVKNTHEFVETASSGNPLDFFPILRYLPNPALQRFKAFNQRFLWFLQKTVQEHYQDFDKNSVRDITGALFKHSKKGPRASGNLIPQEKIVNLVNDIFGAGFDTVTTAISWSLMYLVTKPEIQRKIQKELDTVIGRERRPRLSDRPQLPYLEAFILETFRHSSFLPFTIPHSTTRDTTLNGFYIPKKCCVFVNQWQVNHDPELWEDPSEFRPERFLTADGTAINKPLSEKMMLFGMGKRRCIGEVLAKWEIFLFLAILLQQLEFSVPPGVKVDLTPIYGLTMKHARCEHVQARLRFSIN"}, "[14]": {"target": "Sphingosine 1-phosphate receptor 5 (Homo sapiens, UniProt Q9H228)", "sequence (Q9H228 whole entry)": "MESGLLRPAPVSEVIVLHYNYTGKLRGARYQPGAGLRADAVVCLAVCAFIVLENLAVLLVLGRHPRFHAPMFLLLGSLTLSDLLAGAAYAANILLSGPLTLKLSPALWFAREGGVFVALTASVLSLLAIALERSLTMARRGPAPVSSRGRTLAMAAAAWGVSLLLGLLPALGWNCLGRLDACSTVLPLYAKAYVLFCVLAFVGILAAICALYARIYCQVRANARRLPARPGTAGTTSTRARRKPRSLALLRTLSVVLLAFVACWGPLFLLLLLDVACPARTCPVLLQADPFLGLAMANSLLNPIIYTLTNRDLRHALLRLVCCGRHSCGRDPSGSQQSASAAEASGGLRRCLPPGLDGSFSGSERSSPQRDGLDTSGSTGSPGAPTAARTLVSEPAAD", "experiment": "Late stage counterscreen assay for S1P4 antagonists: Fluorescence dose response cell-based screening assay for antagonists of the Sphingosine 1-Phosphate Receptor 5 (S1P5). [Related pubchem assays (depositor defined):AID1510, AID1524, AID1692, AID1853, AID2332, AID489009, AID489017]", "assay_type": "functional"}, "[15]": {"target": "Sphingosine 1-phosphate receptor 3 (Homo sapiens, UniProt Q99500)", "sequence (Q99500 whole entry)": "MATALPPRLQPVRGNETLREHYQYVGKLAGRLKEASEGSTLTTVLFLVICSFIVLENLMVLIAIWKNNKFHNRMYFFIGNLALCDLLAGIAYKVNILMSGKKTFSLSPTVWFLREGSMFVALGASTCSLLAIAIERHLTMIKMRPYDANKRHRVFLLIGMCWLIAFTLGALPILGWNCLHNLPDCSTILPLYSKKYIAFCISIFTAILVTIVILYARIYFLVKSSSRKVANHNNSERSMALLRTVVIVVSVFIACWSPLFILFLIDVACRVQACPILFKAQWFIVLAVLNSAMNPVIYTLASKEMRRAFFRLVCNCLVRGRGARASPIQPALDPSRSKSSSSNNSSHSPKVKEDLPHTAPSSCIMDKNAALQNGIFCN", "experiment": "Late stage counterscreen assay for S1P4 antagonists: Fluorescence dose response cell-based screening assay for antagonists of the Sphingosine 1-Phosphate Receptor 3 (S1P3). [Related pubchem assays (depositor defined):AID1510, AID1524, AID1692, AID1853, AID2332, AID489009, AID489017]", "assay_type": "functional"}, "[16]": {"target": "T5, Sphingosine 1-phosphate receptor 1 (Homo sapiens, UniProt P21453)", "T5 sequence (P21453 whole entry)": "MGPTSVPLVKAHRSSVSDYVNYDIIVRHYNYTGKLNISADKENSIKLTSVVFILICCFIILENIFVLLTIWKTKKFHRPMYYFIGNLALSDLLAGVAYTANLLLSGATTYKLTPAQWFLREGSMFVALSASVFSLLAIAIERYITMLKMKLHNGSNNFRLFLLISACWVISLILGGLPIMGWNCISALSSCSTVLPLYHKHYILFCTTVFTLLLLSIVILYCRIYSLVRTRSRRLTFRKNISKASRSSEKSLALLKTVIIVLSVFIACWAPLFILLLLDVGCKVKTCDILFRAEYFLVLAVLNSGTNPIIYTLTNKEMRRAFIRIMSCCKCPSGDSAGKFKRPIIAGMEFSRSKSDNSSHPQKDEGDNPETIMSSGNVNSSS", "experiment": "Late stage counterscreen assay for S1P4 antagonists: Fluorescence dose response cell-based screening assay for antagonists of the Sphingosine 1-Phosphate Receptor 1 (S1P1). [Related pubchem assays (depositor defined):AID1510, AID1524, AID1692, AID1853, AID2332, AID489009, AID489017]", "assay_type": "functional"}, "[17]": {"target": "T6, Heat shock factor protein 1 (Mus musculus, UniProt P38532)", "T6 sequence (P38532 whole entry)": "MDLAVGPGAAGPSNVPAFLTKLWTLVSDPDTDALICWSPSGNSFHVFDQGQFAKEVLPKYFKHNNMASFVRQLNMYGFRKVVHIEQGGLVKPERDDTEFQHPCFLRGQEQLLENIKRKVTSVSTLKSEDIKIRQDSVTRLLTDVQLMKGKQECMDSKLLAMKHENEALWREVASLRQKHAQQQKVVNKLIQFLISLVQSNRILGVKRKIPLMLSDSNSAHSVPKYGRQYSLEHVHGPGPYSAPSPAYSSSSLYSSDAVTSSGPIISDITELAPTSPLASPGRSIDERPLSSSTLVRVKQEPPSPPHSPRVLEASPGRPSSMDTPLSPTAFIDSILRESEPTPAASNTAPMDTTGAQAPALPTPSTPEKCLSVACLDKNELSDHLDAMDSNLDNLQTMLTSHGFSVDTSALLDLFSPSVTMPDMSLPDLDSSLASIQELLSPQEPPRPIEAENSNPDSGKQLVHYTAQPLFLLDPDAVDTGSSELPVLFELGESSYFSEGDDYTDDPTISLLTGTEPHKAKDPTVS", "experiment": "inhibition of MG132-induced HSE-luciferase signal, confirmation, cell-based, NIH3T3, luminescence, dose retest (AID 2382);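 also: NIH3T3 fibroblasts with HSF1-driven luciferase reporter stressed by proteasome inhibitor MG132; luminescence from HSF1-driven luciferase expression after 8 hours of MG132 stress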", "assay_type": "functional"}, "[18]": {"experiment": "growth suppression of PTEN-null colon cells, dose response, cell-based, HCT116 PTEN knockout (AID 1047);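 also: HCT116 colon tumor cells with PTEN knocked out; cells exposed to compound for 60 hours before readout; potency for loss of cell viability measured by luminescence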", "assay_type": "functional"}, "[19]": {"target": "Sphingosine 1-phosphate receptor 2 (Homo sapiens, UniProt O95136)", "sequence (O95136 whole entry)": "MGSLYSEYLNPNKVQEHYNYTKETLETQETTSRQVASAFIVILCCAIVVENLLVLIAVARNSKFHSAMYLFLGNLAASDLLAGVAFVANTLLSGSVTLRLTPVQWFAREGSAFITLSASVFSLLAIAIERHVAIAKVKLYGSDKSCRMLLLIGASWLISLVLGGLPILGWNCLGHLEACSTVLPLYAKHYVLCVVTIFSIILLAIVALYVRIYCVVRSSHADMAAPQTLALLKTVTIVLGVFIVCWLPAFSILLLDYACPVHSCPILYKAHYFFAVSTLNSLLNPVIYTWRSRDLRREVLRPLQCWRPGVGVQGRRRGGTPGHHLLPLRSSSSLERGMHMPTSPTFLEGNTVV", "experiment": "Late stage counterscreen assay for S1P4 antagonists: Fluorescence dose response cell-based screening assay for antagonists of the Sphingosine 1-Phosphate Receptor 2 (S1P2). [Related pubchem assays (depositor defined):AID1510, AID1524, AID1692, AID1853, AID2332, AID489009, AID489017]", "assay_type": "functional"}, "[20]": {"target": "T7, Sphingosine 1-phosphate receptor 4 (Homo sapiens, UniProt O95977)", "T7 sequence (O95977 whole entry)": "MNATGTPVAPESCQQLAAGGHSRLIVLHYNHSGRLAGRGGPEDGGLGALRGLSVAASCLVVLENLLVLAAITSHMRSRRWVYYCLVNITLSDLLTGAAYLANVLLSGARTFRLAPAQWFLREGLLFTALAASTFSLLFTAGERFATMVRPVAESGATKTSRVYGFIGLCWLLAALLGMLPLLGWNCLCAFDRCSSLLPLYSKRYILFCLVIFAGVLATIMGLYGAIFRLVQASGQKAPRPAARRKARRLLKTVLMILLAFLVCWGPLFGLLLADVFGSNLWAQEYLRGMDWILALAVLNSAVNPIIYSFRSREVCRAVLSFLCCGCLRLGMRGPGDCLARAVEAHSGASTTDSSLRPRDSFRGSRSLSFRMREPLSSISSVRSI", "experiment": "Late stage fluorescence dose response cell-based screening assay for antagonists of the Sphingosine 1-Phosphate Receptor 4 (S1P4). [Related pubchem assays: 1524 (Confirmation screen (S1P4 antagonists).), 1510 (Primary screen (S1P4 antagonists).), 1853 (Summary AID (S1P4 antagonists).), 1692 (Dose response screen (S1P4 antagonists).)]", "assay_type": "functional"}, "[21]": {"experiment": "growth suppression of beta-catenin-knockout colon cells, dose response, cell-based, HCT116, human colon tumor (AID 1045);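 also: HCT116 colon tumor cells with beta catenin knocked out; cells exposed to compound for 60 hours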", "assay_type": "functional"}, "[22]": {"target": "T7, Sphingosine 1-phosphate receptor 4", "experiment": "Fluorescence dose response cell-based high throughput screening assay for antagonists of the Sphingosine 1-Phosphate Receptor 4 (S1P4). [Related pubchem assays: 1524 (Confirmation in triplicates.), 1510 (Primary screen.)]", "assay_type": "functional"}, "[23]": {"target": "T5, Sphingosine 1-phosphate receptor 1", "assay_type": "functional"}, "[24]": {"target": "T1, G-protein coupled receptor 55", "experiment": "GPR55 agonists via beta-arrestin recruitment, primary screen, imaging, U2OS cells, beta-arrestin-GFP redistribution (AID 1961)", "assay_type": "functional"}, "[25]": {"target": "Integrin alpha-4 (Homo sapiens, UniProt P13612)", "sequence (P13612 whole entry)": "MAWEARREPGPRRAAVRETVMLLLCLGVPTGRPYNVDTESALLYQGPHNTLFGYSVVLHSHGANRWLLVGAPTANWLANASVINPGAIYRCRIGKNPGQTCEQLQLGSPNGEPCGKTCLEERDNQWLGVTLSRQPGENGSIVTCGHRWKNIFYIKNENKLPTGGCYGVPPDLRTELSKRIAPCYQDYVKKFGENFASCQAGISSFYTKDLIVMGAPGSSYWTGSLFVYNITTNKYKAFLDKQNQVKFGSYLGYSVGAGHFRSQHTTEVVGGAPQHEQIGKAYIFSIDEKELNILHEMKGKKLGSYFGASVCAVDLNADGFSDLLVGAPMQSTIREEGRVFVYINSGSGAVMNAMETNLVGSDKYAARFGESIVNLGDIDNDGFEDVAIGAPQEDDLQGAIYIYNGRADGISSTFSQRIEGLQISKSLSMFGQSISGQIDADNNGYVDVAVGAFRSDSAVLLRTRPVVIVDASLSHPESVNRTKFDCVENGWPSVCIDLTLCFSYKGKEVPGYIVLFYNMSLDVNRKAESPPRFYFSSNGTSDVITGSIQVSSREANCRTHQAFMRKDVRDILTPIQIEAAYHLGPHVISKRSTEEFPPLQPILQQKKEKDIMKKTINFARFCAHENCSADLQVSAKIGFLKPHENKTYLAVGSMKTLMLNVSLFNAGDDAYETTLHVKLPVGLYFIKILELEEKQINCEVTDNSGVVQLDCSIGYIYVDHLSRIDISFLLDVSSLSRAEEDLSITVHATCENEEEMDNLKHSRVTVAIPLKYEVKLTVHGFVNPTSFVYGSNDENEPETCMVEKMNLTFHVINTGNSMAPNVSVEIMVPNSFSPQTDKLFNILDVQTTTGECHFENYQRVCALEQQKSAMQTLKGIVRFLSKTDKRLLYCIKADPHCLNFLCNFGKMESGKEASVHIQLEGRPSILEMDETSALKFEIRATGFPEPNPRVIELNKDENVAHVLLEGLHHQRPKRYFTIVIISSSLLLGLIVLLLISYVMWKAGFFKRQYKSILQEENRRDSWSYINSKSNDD", "experiment": "VLA-4 integrin allosteric ligands, SAR follow-up, cell-based, LIBS antibody binding, flow cytometry (AID 488791)", "assay_type": "functional"}}, "note": "Calls of active or inactive are those of the source.", "data": [{"smiles": "Cn1cc(/C=C/c2cc[n+](C)cc2)c2cc(Cl)ccc21", "values": [{"measurement": "EC50", "setting": "[1]", "result": "> 150 µM (inactive)"}, {"measurement": "EC50", "setting": "[2]", "result": "9.8 µM (active)"}, {"measurement": "EC50", "setting": "[3]", "result": "16.2 µM (active)"}, {"measurement": "EC50", "setting": "[4]", "result": "1.29 µM (active)"}, {"measurement": "EC50", "setting": "[5]", "result": "> 150 µM (not active)"}, {"measurement": "EC50", "setting": "[6]", "result": "22.1 µM (inconclusive)"}, {"measurement": "IC50", "setting": "[7]", "result": "3.42 µM (active)"}, {"measurement": "AC50", "setting": "[8]", "result": "4.33 µM (active)"}]}, {"smiles": "O=C(c1ccncc1)N1CCN(C(=O)c2ccncc2)CC1", "values": [{"measurement": "IC50", "setting": "[9]", "result": "> 79.4 µM (inactive)"}, {"measurement": "IC50", "setting": "[10]", "result": "> 79.4 µM (inactive)"}, {"measurement": "IC50", "setting": "[11]", "result": "> 79.4 µM (inactive)"}]}, {"smiles": "COc1ccccc1CN1CC2(CCN(S(C)(=O)=O)CC2)C1", "values": [{"measurement": "AC50", "setting": "[12]", "result": "inconclusive"}, {"measurement": "AC50", "setting": "[13]", "result": "inconclusive"}]}, {"smiles": "CCOC(=O)/C(=C\\c1ccc(OC(F)F)cc1)C1=Nn2c(nnc2-c2ccc(Cl)cc2)SC1", "values": [{"measurement": "IC50", "setting": "[14]", "result": "0.034 µM (active)"}, {"measurement": "IC50", "setting": "[15]", "result": "0.494 µM (active)"}, {"measurement": "IC50", "setting": "[16]", "result": "0.351 µM (active)"}, {"measurement": "EC50", "setting": "[17]", "result": "6.62 µM (active)"}, {"measurement": "EC50", "setting": "[18]", "result": "10.2 µM (active)"}, {"measurement": "IC50", "setting": "[19]", "result": "0.614 µM (active)"}, {"measurement": "IC50", "setting": "[20]", "result": "0.342 µM (active)"}, {"measurement": "EC50", "setting": "[21]", "result": "9.67 µM (active)"}, {"measurement": "IC50", "setting": "[22]", "result": "0.168 µM (active)"}, {"measurement": "IC50", "setting": "[23]", "result": "6.1 µM (active)"}, {"measurement": "EC50", "setting": "[24]", "result": "> 32 µM (inactive)"}, {"measurement": "EC50", "setting": "[25]", "result": "11.8 µM (active)"}, {"measurement": "AC50", "setting": "[8]", "result": "4.22 µM (active)"}]}]}
